Measured values from patent publication US20220017566A1, “TERPINOID DERIVATIVES AND USES THEREOF” (SICHUAN HAISCO PHARMACEUTICAL CO., LTD., priority 2018, published 2022).

What was measured:
[1] = test system: IFNγ-induced NO production in Raw 264.7 cells; assay: Nitric oxide assay: suppression of IFNγ-induced NO production (Griess nitrite, adjusted to live cell numbers); assay type: cell-based; details: Mus musculus, RAW264.7, 2 h pretreatment, IFNγ 10 ng/ml for 24 hours
Procedure: Raw 264.7 cells were seeded in 96-well plates at a density of 30, 000 cells per well in DMEM+10% FBS and incubated overnight. The next day, cell media was replaced by DMEM+2% FBS. Cells were pretreated with DMSO or test compounds (top dose 100 nM, 1:4 serial dilution, 10-point) for 2 hours and then treated with recombinant mouse IFNγ (R&D, Cat# 485-MI-100) at a final concentration of 10 ng/ml for 24 hours. Nitrite levels were measured in culture media as a surrogate for nitric oxide using the Griess Reagent System (Promega, Cat# G2930). Cell viability was determined using CellTiter Glo reagents (Promega, Cat#G7572). The nitrite levels were adjusted to live cell numbers and inhibition percentage was calculated. The inhibition percentage was then plotted against compound concentration, and IC50 values were calculated using four-parameter algorithm in Graphpad Prism.

[2] = target: T1, CYP3A4 (Homo sapiens, UniProt P08684); assay: CYP450 enzyme inhibition in liver microsomes (cocktail probe incubation); assay type: in vitro ADME; details: species not given, 0.05-50 μM tested
T1 construct: studied in liver microsomes of CD-1 mouse, Sprague Dawley rat, Beagle dog, cynomolgus monkey, and human; from tissue; host or cells: liver microsomes
T1 sequence (P08684 whole entry): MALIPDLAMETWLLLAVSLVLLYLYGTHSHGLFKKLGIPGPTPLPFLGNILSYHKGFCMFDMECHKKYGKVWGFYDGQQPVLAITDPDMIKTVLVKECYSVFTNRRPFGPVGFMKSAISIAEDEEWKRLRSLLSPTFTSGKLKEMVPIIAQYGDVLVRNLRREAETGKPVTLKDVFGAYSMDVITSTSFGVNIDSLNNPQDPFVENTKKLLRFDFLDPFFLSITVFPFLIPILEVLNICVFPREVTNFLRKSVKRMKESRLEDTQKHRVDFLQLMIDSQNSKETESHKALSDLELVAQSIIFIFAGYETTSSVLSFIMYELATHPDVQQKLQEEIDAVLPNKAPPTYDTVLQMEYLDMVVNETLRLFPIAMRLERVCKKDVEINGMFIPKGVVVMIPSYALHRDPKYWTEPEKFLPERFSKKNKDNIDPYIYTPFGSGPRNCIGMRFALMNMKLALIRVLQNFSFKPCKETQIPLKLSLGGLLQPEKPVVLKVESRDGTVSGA
Procedure: (§1) The inhibition potential of test compounds towards major drug metabolizing CYP450 enzymes was studied in liver microsomes of CD-1 mouse, Sprague Dawley rat, Beagle dog, cynomolgus monkey, and human. The inhibition of CYP1A2, CYP2C9, CYP2C19, CYP2D6, and CYP3A4 was assessed using CYP450 specific probe reactions in a cocktail incubation. Seven concentrations of test compounds (0.05, 0.15, 0.5, 1.5, 5, 15, and 50 μM) were evaluated. In addition, known inhibitors for each probe reaction were included as positive controls and incubated at a single concentration above their respective IC50.

[3] = target: T2, CYP2C19 (Homo sapiens, UniProt P33261); assay: as above; assay type: in vitro ADME; details: species not given, 0.05-50 μM tested
T2 construct: studied in liver microsomes of CD-1 mouse, Sprague Dawley rat, Beagle dog, cynomolgus monkey, and human; from tissue; host or cells: liver microsomes
T2 sequence (P33261 whole entry): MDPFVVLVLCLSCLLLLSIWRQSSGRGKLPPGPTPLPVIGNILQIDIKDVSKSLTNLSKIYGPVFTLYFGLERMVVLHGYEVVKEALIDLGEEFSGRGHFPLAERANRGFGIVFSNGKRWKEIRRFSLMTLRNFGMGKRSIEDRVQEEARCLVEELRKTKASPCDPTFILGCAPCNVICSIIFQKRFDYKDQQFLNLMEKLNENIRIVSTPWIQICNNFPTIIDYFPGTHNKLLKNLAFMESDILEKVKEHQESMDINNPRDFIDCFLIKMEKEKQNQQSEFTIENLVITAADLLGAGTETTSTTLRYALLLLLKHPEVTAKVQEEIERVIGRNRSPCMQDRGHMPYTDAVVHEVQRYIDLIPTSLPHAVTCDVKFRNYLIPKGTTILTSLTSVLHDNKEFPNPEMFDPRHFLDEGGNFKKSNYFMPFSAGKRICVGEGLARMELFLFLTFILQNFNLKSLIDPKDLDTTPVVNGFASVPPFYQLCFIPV
Procedure: as §1

[4] = target: T3, CYP2D6 (Homo sapiens, UniProt P10635); assay: as above; assay type: in vitro ADME; details: species not given, 0.05-50 μM tested
T3 construct: studied in liver microsomes of CD-1 mouse, Sprague Dawley rat, Beagle dog, cynomolgus monkey, and human; from tissue; host or cells: liver microsomes
T3 sequence (P10635 whole entry): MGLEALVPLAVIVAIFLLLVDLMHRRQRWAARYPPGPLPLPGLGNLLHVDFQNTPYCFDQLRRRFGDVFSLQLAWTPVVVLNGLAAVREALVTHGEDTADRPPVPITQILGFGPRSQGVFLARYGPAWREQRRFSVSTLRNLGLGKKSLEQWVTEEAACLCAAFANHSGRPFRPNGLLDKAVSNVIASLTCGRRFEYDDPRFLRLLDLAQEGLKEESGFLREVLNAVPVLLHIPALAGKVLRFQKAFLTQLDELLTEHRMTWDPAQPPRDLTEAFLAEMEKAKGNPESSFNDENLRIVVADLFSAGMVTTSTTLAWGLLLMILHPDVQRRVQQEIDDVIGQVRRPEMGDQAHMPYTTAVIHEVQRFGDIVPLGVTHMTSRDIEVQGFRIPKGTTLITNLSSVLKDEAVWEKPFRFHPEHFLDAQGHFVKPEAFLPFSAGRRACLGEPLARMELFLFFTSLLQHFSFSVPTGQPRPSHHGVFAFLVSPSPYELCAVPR
Procedure: as §1

[5] = target: T4, CYP2C9 (Homo sapiens, UniProt P11712); assay: as above; assay type: in vitro ADME; details: species not given, 0.05-50 μM tested
T4 construct: studied in liver microsomes of CD-1 mouse, Sprague Dawley rat, Beagle dog, cynomolgus monkey, and human; from tissue; host or cells: liver microsomes
T4 sequence (P11712 whole entry): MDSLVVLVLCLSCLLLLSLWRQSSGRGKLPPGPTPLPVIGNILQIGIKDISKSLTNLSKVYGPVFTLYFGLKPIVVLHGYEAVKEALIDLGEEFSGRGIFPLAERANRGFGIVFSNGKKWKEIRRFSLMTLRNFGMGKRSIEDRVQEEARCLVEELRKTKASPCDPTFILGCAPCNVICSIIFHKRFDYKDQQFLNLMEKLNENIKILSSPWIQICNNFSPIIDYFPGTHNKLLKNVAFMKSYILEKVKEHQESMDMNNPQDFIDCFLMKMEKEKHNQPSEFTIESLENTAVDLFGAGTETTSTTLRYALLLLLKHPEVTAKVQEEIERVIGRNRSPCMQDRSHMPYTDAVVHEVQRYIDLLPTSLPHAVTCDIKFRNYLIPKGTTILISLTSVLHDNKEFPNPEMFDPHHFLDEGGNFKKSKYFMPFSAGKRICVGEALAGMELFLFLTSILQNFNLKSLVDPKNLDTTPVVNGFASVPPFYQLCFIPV
Procedure: as §1

[6] = target: T5, CYP1A2 (Homo sapiens, UniProt P05177); assay: as above; assay type: in vitro ADME; details: species not given, 0.05-50 μM tested
T5 construct: studied in liver microsomes of CD-1 mouse, Sprague Dawley rat, Beagle dog, cynomolgus monkey, and human; from tissue; host or cells: liver microsomes
T5 sequence (P05177 1-516): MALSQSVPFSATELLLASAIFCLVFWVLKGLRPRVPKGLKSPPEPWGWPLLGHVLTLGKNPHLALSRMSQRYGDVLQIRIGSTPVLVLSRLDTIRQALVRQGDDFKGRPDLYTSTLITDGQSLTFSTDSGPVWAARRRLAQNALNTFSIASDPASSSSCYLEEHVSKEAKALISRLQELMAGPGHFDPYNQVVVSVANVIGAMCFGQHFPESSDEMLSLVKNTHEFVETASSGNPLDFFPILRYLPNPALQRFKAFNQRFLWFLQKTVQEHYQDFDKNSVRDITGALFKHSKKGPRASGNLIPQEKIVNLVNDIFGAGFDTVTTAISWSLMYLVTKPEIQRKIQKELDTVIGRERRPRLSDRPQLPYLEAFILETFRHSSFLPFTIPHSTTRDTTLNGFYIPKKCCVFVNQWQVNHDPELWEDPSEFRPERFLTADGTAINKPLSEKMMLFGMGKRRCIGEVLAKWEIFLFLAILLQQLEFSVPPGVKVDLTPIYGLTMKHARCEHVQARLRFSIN
Procedure: as §1

SMILES	IC50 [1]	IC50 [2]	IC50 [3]	IC50 [4]	IC50 [5]	IC50 [6]
CC1(C)C(=O)C(C#N)=C[C@]2(C)C3=CC(=O)[C@@H]4[C@@H]5C[C@@](C)(c6nnc(C7CC7)o6)CC[C@]5(C)CC[C@@]4(C)[C@]3(C)CC[C@@H]12 [Example 16, (4aR,6aS,6bR,8aS,11S,12aS,12bR,14bS)-11-(5-cyclopropyl-1,3,4-oxadiazol-2-yl)-4,4,6a,6b,8a,11,14b-heptamethyl-3,13-dioxo-3,4,4a,5,6,6a,6b,7,8,8a,9,10,11,12,12a,12b,13,14b-octadecahydropicene-2-carbonitrile]	< 10 nM	1500 nM	7400 nM	14700 nM	2000 nM	> 50000 nM
CC1(C)C(=O)C(C#N)=C[C@]2(C)C3=CC(=O)[C@@H]4[C@@H]5C[C@@](C)(N6CCOCC6)CC[C@]5(C)CC[C@@]4(C)[C@]3(C)CC[C@@H]12 [Example 11, (4aR,6aS,6bR,8aS,11S,12aS,12bR,14bS)-4,4,6a,6b,8a,11,14b-heptamethyl-11-morpholino-3,13-dioxo-3,4,4a,5,6,6a,6b,7,8,8a,9,10,11,12,12a,12b,13,14b-octadecahydropicene-2-carbonitrile]	< 10 nM	500 nM	14600 nM	> 50000 nM	2200 nM	> 50000 nM
CC1(C)C(=O)C(C#N)=C[C@]2(C)C3=CC(=O)[C@@H]4[C@@H]5C[C@@](C)(c6nnc(C(F)(F)F)o6)CC[C@]5(C)CC[C@@]4(C)[C@]3(C)CC[C@@H]12 [Example 10, (4aR,6aS,6bR,8aS,11S,12aS,12bR,14bS)-4,4,6a,6b,8a,11,14b-heptamethyl-3,13-dioxo-11-(5-(trifluoromethyl)-1,3,4-oxadiazol-2-yl)-3,4,4a,5,6,6a,6b,7,8,8a,9,10,11,12,12a,12b,13,14b-octadecahydropicene-2-carbonitrile]	< 10 nM	1300 nM	27500 nM	> 50000 nM	1800 nM	> 50000 nM
CC1(C)C(=O)C(C#N)=C[C@]2(C)C3=CC(=O)[C@@H]4[C@@H]5C[C@@](C)(N6CCCC6)CC[C@]5(C)CC[C@@]4(C)[C@]3(C)CC[C@@H]12 [Example 21, (4aR,6aS,6bR,8aS,11S,12aS,12bR,14bS)-4,4,6a,6b,8a,11,14b-heptamethyl-3,13-dioxo-11-(pyrrolidin-1-yl)-3,4,4a,5,6,6a,6b,7,8,8a,9,10,11,12,12a,12b,13,14b-octadecahydropicene-2-carbonitrile]	10 to 100 nM	–	–	–	–	–
CC1(C)C(=O)C(C#N)=C[C@]2(C)C3=CC(=O)[C@@H]4[C@@H]5C[C@@](C)(c6ncco6)CC[C@]5(C)CC[C@@]4(C)[C@]3(C)CC[C@@H]12 [Example 6, (4aR,6aS,6bR,8aS,11S,12aS,12bR,14bS)-4,4,6a,6b,8a,11,14b-heptamethyl-11-(oxazol-2-yl)-3,13-dioxo-3,4,4a,5,6,6a,6b,7,8,8a,9,10,11,12,12a,12b,13,14b-octadecahydropicene-2-carbonitrile]	< 10 nM	500 nM	5600 nM	6900 nM	2100 nM	> 50000 nM
Cc1cnc([C@@]2(C)CC[C@]3(C)CC[C@]4(C)[C@H](C(=O)C=C5[C@@]6(C)C=C(C#N)C(=O)C(C)(C)[C@@H]6CC[C@]54C)[C@@H]3C2)o1 [Example 7, (4aR,6aS,6bR,8aS,11S,12aS,12bR,14bS)-4,4,6a,6b,8a,11,14b-heptamethyl-11-(5-methyloxazol-2-yl)-3,13-dioxo-3,4,4a,5,6,6a,6b,7,8,8a,9,10,11,12,12a,12b,13,14b-octadecahydropicene-2-carbonitrile]	< 10 nM	800 nM	9400 nM	10100 nM	2000 nM	> 50000 nM
CC1(C)C(=O)C(C#N)=C[C@]2(C)C3=CC(=O)[C@@H]4[C@@H]5C[C@@](C)(c6nc(-c7ccccc7)n[nH]6)CC[C@]5(C)CC[C@@]4(C)[C@]3(C)CC[C@@H]12 [Example 8, (4aR,6aS,6bR,8aS,11S,12aS,12bR,14bS)-4,4,6a,6b,8a,11,14b-heptamethyl-3,13-dioxo-11-(3-phenyl-1H-1,2,4-triazol-5-yl)-3,4,4a,5,6,6a,6b,7,8,8a,9,10,11,12,12a,12b,13,14b-octadecahydropicene-2carbonitrile]	10 to 100 nM	–	–	–	–	–
CC1(C)C(=O)C(C#N)=C[C@]2(C)C3=CC(=O)[C@@H]4[C@@H]5C[C@@](C)(c6nnc(N)o6)CC[C@]5(C)CC[C@@]4(C)[C@]3(C)CC[C@@H]12 [Example 27, (4aR,6aS,6bR,8aS,11S,12aS,12bR,14bS)-11-(5-amino-1,3,4-oxadiazol-2-yl)-4,4,6a,6b,8a,11,14b-heptamethyl-3,13-dioxo-3,4,4a,5,6,6a,6b,7,8,8a,9,10,11,12,12a,12b,13,14b-octadecahydropicene-2-carbonitrile]	10 to 100 nM	–	–	–	–	–
C[C@H](O)c1nnc([C@@]2(C)CC[C@]3(C)CC[C@]4(C)[C@H](C(=O)C=C5[C@@]6(C)C=C(C#N)C(=O)C(C)(C)[C@@H]6CC[C@]54C)[C@@H]3C2)o1 [Example 23, (4aR,6aS,6bR,8aS,11S,12aS,12bR,14bS)-11-(5-((S)-1-hydroxyethyl)-1,3,4-oxadiazol-2-yl)-4,4,6a,6b,8a,11,14b-heptamethyl-3,13-dioxo-3,4,4a,5,6,6a,6b,7,8,8a,9,10,11,12,12a,12b,13,14b-octadecahydropicene-2-carbonitrile]	10 to 100 nM	900 nM	11800 nM	15800 nM	1500 nM	> 50000 nM
CC1(C)C(=O)C(C#N)=C[C@]2(C)C3=CC(=O)[C@@H]4[C@@H]5C[C@@](C)(n6cnnc6)CC[C@]5(C)CC[C@@]4(C)[C@]3(C)CC[C@@H]12 [Example 17, (4aR,6aS,6bR,8aS,11S,12aS,12bR,14bS)-4,4,6a,6b,8a,11,14b-heptamethyl-3,13 dioxo-11-(4H-1,2,4-triazol-4-yl)-3,4,4a,5,6,6a,6b,7,8,8a,9,10,11,12,12a,12b,13,14b-octadecahydropicene-2-carbonitrile]	–	100 nM	16900 nM	35400 nM	2200 nM	> 50000 nM
CNC(=O)c1nnc([C@@]2(C)CC[C@]3(C)CC[C@]4(C)[C@H](C(=O)C=C5[C@@]6(C)C=C(C#N)C(=O)C(C)(C)[C@@H]6CC[C@]54C)[C@@H]3C2)o1 [Example 24, 5-((2S,4aS,6aR,6bS,8aR,12aS,14aR,14bS)-11-cyano-2,4a,6a,6b,9,9,12a-heptamethyl-10,14-dioxo-1,2,3,4,4a,5,6,6a,6b,7,8,8a,9,10,12a,14,14a,14b-octadecahydropicen-2-yl)-N-methyl-1,3,4-oxadiazole-2-carboxamide]	< 10 nM	500 nM	2800 nM	4000 nM	600 nM	> 50000 nM
